Measured values published in US8557840B2, “Herbicidal compounds” (Syngenta Limited, priority 2008, dated 2013).

How the values were obtained:
Format in all cases: in vivo
[1] = tested on: Nasturtium officinale; assay: Herbicidal action, post-emergence, seed trays in climatic chamber (Example B1); conditions: 1000 g/ha, evaluated after 9 days, 10=total damage to plant, 0=no damage to plant
Method: (§1) Seeds of a variety of test species were sown in sterilised standard soil in seed trays each having 96 cells. […] The plants were grown in the climatic chamber after application at (24/19° C., day/night; 13 hours light; 50-60% humidity) and watered twice daily. After 9 days until the test was evaluated (10=total damage to plant, 0=no damage to plant)

[2] = tested on: Amaranthus retroflexus; assay: as above; conditions: 1000 g/ha, evaluated after 9 days, 10=total damage to plant, 0=no damage to plant
Method: as §1

[3] = tested on: Solanum nigrum; assay: as above; conditions: 1000 g/ha, evaluated after 9 days, 10=total damage to plant, 0=no damage to plant
Method: as §1

[4] = tested on: Stellaria media; assay: as above; conditions: 1000 g/ha, evaluated after 9 days, 10=total damage to plant, 0=no damage to plant
Method: as §1

[5] = tested on: Ipomea hederaceae; assay: Herbicidal action, post-emergence, pots in glasshouse (Example B2); conditions: 1000 g/ha, evaluated after 13 days, 10=total damage to plant, 0=no damage to plant
Method: (§2) Seeds of a variety of test species were sown in standard soil in pots. After 8 days cultivation (post-emergence) under controlled conditions in a glasshouse (at 24/16° C., day/night; 14 hours light; 65% humidity), the plants were sprayed with an aqueous spray solution derived from the formulation of the technical active ingredient in acetone/water (50:50) solution containing 0.5% Tween 20 (polyoxyethelyene sorbitan monolaurate, CAS RN 9005-64-5). The test plants were then grown in a glasshouse under controlled conditions in a glasshouse (at 24/16° C., day/night; 14 hours light; 65% humidity) and watered twice daily. After 13 days, the test was evaluated (10=total damage to plant; 0=no damage to plant).

[6] = tested on: Setaria faberi; assay: as above; conditions: 1000 g/ha, evaluated after 13 days, 10=total damage to plant, 0=no damage to plant
Method: as §2

[7] = tested on: Amaranthus retroflexus; assay: as above; conditions: 1000 g/ha, evaluated after 13 days, 10=total damage to plant, 0=no damage to plant
Method: as §2

[8] = tested on: Solanum nigrum; assay: as above; conditions: 1000 g/ha, evaluated after 13 days, 10=total damage to plant, 0=no damage to plant
Method: as §2

[9] = tested on: Echinochloa crus-galli; assay: as above; conditions: 1000 g/ha, evaluated after 13 days, 10=total damage to plant, 0=no damage to plant
Method: as §2

[10] = tested on: test plants; assay: Herbicidal action, post-emergence (Example B1), all test plants, result in words; conditions: same protocol as Example B1, post-emergence
Method: as §1

SMILES | IPOHE damage to plant [5] | SETFA damage to plant [6] | AMARE damage to plant [7] | SOLNI damage to plant [8] | ECHCG damage to plant [9] | damage to the test plants [10] | also measured
O=c1[nH]c2cccnc2c(O)c1-c1ccc(Cl)cc1Cl [A1] |  |  |  |  |  |  | NAAOF damage to plant [1]: 2; AMARE damage to plant [2]: 0; SOLNI damage to plant [3]: 0; STEME damage to plant [4]: 0
O=c1c(-c2c(F)ccc(F)c2Cl)c(O)c2cccnc2n1CC(F)F [D21, 3-(2-chloro-3,6-difluoro-phenyl)-1-(2,2-difluoro-ethyl)-4-hydroxy-1H-[1,8]naphthyridin-2-one] | 9 | 1 | 10 | 10 | 2 |  | 
CC(C)(C)C(=O)Oc1c(-c2c(F)ccc(F)c2Cl)c(=O)n(CC(F)F)c2ncccc12 [D10, 2,2-dimethyl-propionic acid 3-(2-chloro-3,6-difluoro-phenyl)-1-(2,2-difluoro-ethyl)-2-oxo-1,2-dihydro-[1,8]naphthyridin-4-yl ester] | 6 | 0 | 7 | 7 | 0 |  | 
O=c1c(-c2c(F)ccc(F)c2Cl)c(O)c2ccc(Cl)nc2n1CC(F)F [D17] | 5 | 0 | 6 | 6 | 0 |  | 
Cn1c(=O)c(-c2c(F)ccc(F)c2Cl)c(OC(=O)C(C)(C)C)c2cccnc21 [D9] |  |  |  |  |  |  | NAAOF damage to plant [1]: 2; AMARE damage to plant [2]: 3; SOLNI damage to plant [3]: 0; STEME damage to plant [4]: 2
O=c1[nH]c2cnncc2c(O)c1-c1c(F)cc(F)cc1F [E13] |  |  |  |  |  | little or no damage | 
CCOC(=O)Oc1c(-c2c(C)cc(C)cc2C)c(=O)[nH]c2nncnc12 [E9] | 1 | 9 | 0 | 0 | 10 |  | 
O=c1[nH]c2cnccc2c(O)c1-c1c(F)cc(F)cc1F [C3] |  |  |  |  |  | little or no damage | 
O=c1[nH]c2ncncc2c(O)c1-c1c(F)cc(F)cc1F [E10] |  |  |  |  |  | little or no damage | 
CC(C)(C)C(=O)Oc1c(-c2c(F)ccc(F)c2Cl)c(=O)[nH]c2nc(C(F)(F)F)ccc12 [D31] | 1 | 0 | 0 | 0 | 0 |  | 
O=c1[nH]c2ncc(Br)cc2c(O)c1-c1c(F)cccc1F [D27] |  |  |  |  |  | little or no damage | 
O=c1[nH]c2ncccc2c(O)c1-c1cccnc1 [D11, 4-Hydroxy-3-pyridin-3-yl-1H-[1,8]naphthyridin-2-one] |  |  |  |  |  | little or no damage | 
CCn1c(=O)c(-c2c(F)ccc(F)c2Cl)c(OC(=O)C(C)C)c2cncnc21 [E2] | 2 | 0 | 5 | 4 | 2 |  | 
O=c1[nH]c2ncccc2c(O)c1-c1c(Cl)cccc1Cl [D2] |  |  |  |  |  | little or no damage | 
O=c1[nH]c2ncccc2c(O)c1-c1c(F)ccc(Br)c1Cl [D33] | 7 | 0 | 1 | 3 | 0 |  | 
O=c1[nH]c2ncccc2c(O)c1-c1c(F)ccc(F)c1Cl [D4] |  |  |  |  |  | little or no damage | 
COc1cccc(-c2c(O)c3cccnc3[nH]c2=O)c1 [D25] |  |  |  |  |  | little or no damage | 
O=c1[nH]c2cccnc2c(O)c1-c1c(F)cc(F)cc1F [A9] |  |  |  |  |  | little or no damage | 
O=c1[nH]c2ncccc2c(O)c1-c1ccccc1OC(F)(F)F [D3] |  |  |  |  |  | little or no damage | 
O=c1[nH]c2ncc(Br)cc2c(O)c1-c1c(F)cc(F)cc1F [D28] |  |  |  |  |  | little or no damage | 
CC(C)C(=O)Oc1c(-c2c(F)ccc(Br)c2Cl)c(=O)n(CC(F)F)c2ncccc12 [D23, isobutyric acid 3-(3-bromo-2-chloro-6-fluoro-phenyl)-1-(2,2-difluoro-ethyl)-2-oxo-1,2-dihydro-[1,8]naphthyridin-4-yl ester] | 4 | 0 | 4 | 9 | 1 |  | 
O=c1[nH]c2ncccc2c(O)c1-c1ccccn1 [D12] |  |  |  |  |  | little or no damage | 
CC(=O)Oc1c(-c2c(F)ccc(F)c2Cl)c(=O)[nH]c2nncnc12 [E5] |  |  |  |  |  | little or no damage | 

SMILES | IPOHE damage to plant [5] | SETFA damage to plant [6] | AMARE damage to plant [7] | SOLNI damage to plant [8] | ECHCG damage to plant [9] | damage to the test plants [10] | also measured
Cc1cc(Cl)c2c(O)c(-c3c(F)ccc(F)c3Cl)c(=O)n(C)c2n1 [D18] | 0 | 2 | 2 | 3 | 0 |  | 
CC(C)C(=O)Oc1c(-c2c(F)ccc(F)c2Cl)c(=O)n(C)c2cnccc12 [C2] | 5 | 0 | 3 | 2 | 0 |  | 
O=c1c(-c2c(F)ccc(Br)c2Cl)c(O)c2cccnc2n1CC(F)F [D32] | 6 | 1 | 4 | 7 | 1 |  | 
CC(C)C(=O)Oc1c(-c2c(F)ccc(F)c2Cl)c(=O)n(CC(F)F)c2ncncc12 [E3] | 1 | 0 | 7 | 5 | 0 |  | 
O=c1[nH]c2nnccc2c(O)c1-c1c(F)cccc1Cl [E8] |  |  |  |  |  | little or no damage | 
Cc1cc(C)c(-c2c(O)c3ncnnc3[nH]c2=O)c(C)c1 [E12] | 3 | 10 | 5 | 1 | 10 |  | 
CC(C)(C)C(=O)Oc1c(-c2c(F)ccc(F)c2Cl)c(=O)[nH]c2ccncc12 [B3] |  |  |  |  |  | little or no damage | 
Cn1c(=O)c(-c2c(F)ccc(F)c2Cl)c(OC(=O)C(C)(C)C)c2ccc(C(F)(F)F)nc21 [D30] | 2 | 0 | 0 | 2 | 0 |  | 
O=c1[nH]c2nc(Cl)ccc2c(O)c1-c1c(F)ccc(F)c1Cl [D14] | 0 | 0 | 4 | 0 | 4 |  | 
O=c1[nH]c2ccncc2c(O)c1-c1c(F)ccc(F)c1Cl [B2] |  |  |  |  |  | little or no damage | 
CC(C)(C)C(=O)Oc1c(-c2c(F)ccc(F)c2Cl)c(=O)[nH]c2nc(Cl)ccc12 [D15] |  |  |  |  |  | little or no damage | 
O=c1[nH]c2nncnc2c(O)c1-c1c(F)cc(F)cc1F [E11] |  |  |  |  |  | little or no damage | 
Cn1c(=O)c(-c2c(F)ccc(F)c2Cl)c(O)c2ccncc21 [C1] | 2 | 0 | 0 | 0 | 0 |  | 
Cc1cc(C)c(-c2c(O)c3cccnc3n(C)c2=O)c(C)c1 [D24] | 1 | 0 | 0 | 1 | 0 |  | 
Cn1c(=O)c(-c2c(F)ccc(F)c2Cl)c(OC(=O)C(C)(C)C)c2ccc(Cl)nc21 [D16] | 2 | 0 | 2 | 2 | 0 |  | 
O=c1[nH]c2nncnc2c(O)c1-c1c(F)cccc1Cl [E7] |  |  |  |  |  | little or no damage | 
Cc1cc2c(c(Cl)n1)c(O)c(-c1c(F)ccc(F)c1Cl)c(=O)n2C [B4] | 2 | 0 | 0 | 2 | 0 |  | 
CCn1c(=O)c(-c2c(F)ccc(Cl)c2Cl)c(O)c2c(OC)ccnc21 [D26] | 6 | 4 | 6 | 6 | 4 |  | 
Cn1c(=O)c(-c2c(F)ccc(F)c2Cl)c(O)c2ccc(C(F)(F)F)nc21 [D29] | 7 | 0 | 6 | 4 | 0 |  | 
Cn1c(=O)c(-c2c(F)ccc(F)c2Cl)c(O)c2ccc(Cl)nc21 [D22] | 6 | 0 | 2 | 4 | 1 |  | 
O=c1[nH]c2ncccc2c(O)c1-c1ccc(Cl)cc1Cl [D1, 3-(2,4-dichloro-phenyl)-4-hydroxy-1H-[1,8]naphthyridin-2-one] |  |  |  |  |  | little or no damage | 
O=c1[nH]c2cccnc2c(O)c1-c1ccccn1 [A8] |  |  |  |  |  | little or no damage | 
